Measurements from patent US6528516B1, “Methods for reducing intraocular pressure using A3 adenosine receptor antagonists” (Trustees of the University of Pennsylvania, The Center for …, priority 1998, dated 2003).

Columns and labels:
[1] = system: bovine PE cells, Cl− currents; assay: Ruptured-patch whole-cell recording of PE cells; type: cell-based
Text: Harvested cultured PE cells were resuspended and permitted to settle and attach to glass coverslips, which were then transferred to a perfusion chamber (Carré et al., supra., 1997). Solutions were designed to isolate any Cl^- current activated by ATP. […] (Am. J. Physiol., 261:[…]-[…], 1991), as previously described (Carré et al., supra., 1997). Cells were patched while still round, usually one day after dissociation. […] Data were acquired at 1 kHz using Axopatch-1B electronics and associated headstage (Axon Instruments, Foster City, Calif.) and filtered at 500 Hz with a Bessel filter. The micropipettes were double-pulled from Corning No. 7052 glass, coated with Sylgard and fire polished. The membrane potential was held without series-resistance compensation at 0 mV and stepped to voltages over the range from -100 to +100 mV in 20 mV increments for 200 msec periods. The mean current measured between 150-200 msec was used to obtain the patch-clamp data used here. The data presented in FIG. 2 was obtained at -60 mV [the approximate membrane potential (Green et al., Invest. Ophthalmol. Vis. Sci., 26:371-381, 1985)] to facilitate comparison with the volumetric data.

[2] = system: bovine pigmented ciliary epithelial (PE) cells; assay: Cell volume (shrinkage) of PE cells in isoosmotic suspension, Coulter Counter; type: cell-based

## Nc1ncnc2c1ncn2[C@@H]1O[C@H](COP(=O)(O)OP(=O)(O)OP(=O)(O)O)[C@@H](O)[C@H]1O [ATP]
[1]; 1 mM ATP, holding potential −60 mV, cultured bovine PE cell
  effect of ATP on whole-cell current: reversible and reproducible increases in inward current
[1]; cultured PE cells
  trials with current activated by ATP: 10/17
[1]; fresh bovine PE cells
  trials with current activated by ATP: 3/9
[2]; 3 μM ATP alone, FIG. 8B
  steady-state cell volume (v∞): 98.0±0.4%
  time constant of the shrinkage (τ): 10.8 ± 4.9 min
[2]; 10 μM ATP alone, FIG. 8A
  steady-state cell volume (v∞): 94.3±0.3%
  time constant of the shrinkage (τ): 2.8 ± 0.7 min
[2]; 10 μM ATP alone, FIG. 8B
  steady-state cell volume (v∞): 97.2±0.3%
  time constant of the shrinkage (τ): 1.6 ± 1.0 min
[2]; 10 μM ATP alone, FIG. 10A
  steady-state cell volume (v∞): 97.2±0.3%
  time constant of the shrinkage (τ): 1.6 ± 1.0 min
[2]; 100 μM ATP alone, FIG. 8A
  steady-state cell volume (v∞): 94.3±0.3%
  time constant of the shrinkage (τ): 2.8 ± 0.7 min
[2]; 100 μM ATP alone, FIG. 13A
  steady-state cell volume (v∞): 94.9±1.0%
  time constant of the shrinkage (τ): 45.2 ± 14.0 min
[2]; 100 μM ATP alone, FIG. 13B
  steady-state cell volume (v∞): 87.5±1.8%
  time constant of the shrinkage (τ): 45.2 ± 14.0 min
[2]; 100 μM ATP alone, FIG. 13C
  steady-state cell volume (v∞): 93.9±1.7%
  time constant of the shrinkage (τ): 34.8 ± 13.8 min
[2]; 100 μM ATP alone, FIG. 14B
  steady-state cell volume (v∞): 96.8±0.5%
  time constant of the shrinkage (τ): 8.3 ± 3.7 min
[2]; 10 mM ATP alone, FIG. 10A
  steady-state cell volume (v∞): 97.7±0.2%
  time constant of the shrinkage (τ): 2.2 ± 0.8 min
[2]; ATP alone
  share of volumetric studies in which ATP alone produced shrinkage: approximately 15%
[2]; in the presence of tamoxifen, read-out: ATP concentration eliciting approximately half-maximal response
  EC50: ~3000 nM
